Test results published in ChEMBL document CHEMBL1201862, “PubChem BioAssay data set” (2004).
Structures can show the parent of a compound that is named as a salt. The source made the active and inactive calls.

How the values were obtained:
[1] = biological target: Cytochrome P450 2C9 (Homo sapiens, UniProt P11712)
[2] = biological target: T1, Cytochrome P450 1A2 (Homo sapiens, UniProt P05177);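 note: PubChem cytochrome P450 panel assay, CYP1A2 panel member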
T1 sequence (P05177 whole entry): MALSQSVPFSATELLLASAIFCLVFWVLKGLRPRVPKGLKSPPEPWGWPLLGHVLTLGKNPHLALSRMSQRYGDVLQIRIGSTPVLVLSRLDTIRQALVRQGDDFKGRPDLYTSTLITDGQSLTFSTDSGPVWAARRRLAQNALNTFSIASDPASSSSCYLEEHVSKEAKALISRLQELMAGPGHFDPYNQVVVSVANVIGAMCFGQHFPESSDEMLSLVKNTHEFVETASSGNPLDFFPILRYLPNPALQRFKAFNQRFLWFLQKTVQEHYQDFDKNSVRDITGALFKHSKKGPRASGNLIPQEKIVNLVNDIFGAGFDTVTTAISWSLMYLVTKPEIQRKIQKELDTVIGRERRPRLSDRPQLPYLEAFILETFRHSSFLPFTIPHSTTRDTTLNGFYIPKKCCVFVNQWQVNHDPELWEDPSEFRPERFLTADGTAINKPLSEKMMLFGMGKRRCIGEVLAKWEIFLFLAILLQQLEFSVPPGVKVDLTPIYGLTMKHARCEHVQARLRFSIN

[3] = biological target: Cytochrome P450 3A4 (Homo sapiens, UniProt P08684);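 note: CYP3A4 tested as one member of a cytochrome P450 panel screen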
[4] = HEp-2 cell cytotoxicity, dose response, cytotoxicity control for RSV inhibitor project, HTS (AID 2410); type: functional; details: human respiratory syncytial virus
[5] = cells; type: functional
[6] = biological target: FAD-linked sulfhydryl oxidase ALR (Homo sapiens, UniProt P55789); assay: inhibitors of human ALR sulfhydryl oxidase, dose response, biochemical, H2O2 detection, luminescence, cherry-pick (AID 493248)
[7] = microbe, parasite or virus in culture; type: functional; details: Mycobacterium tuberculosis
[8] = growth suppression of PTEN-null colon cells, dose response, cell-based, HCT116 PTEN knockout (AID 1047); type: functional;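 note: HCT116 colon tumor cells with PTEN knocked out; cells exposed to compound for 60 hours before readout; potency for loss of cell viability measured by luminescence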
[9] = growth suppression of beta-catenin-knockout colon cells, dose response, cell-based, HCT116, human colon tumor (AID 1045); type: functional;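 note: HCT116 colon tumor cells with beta catenin knocked out; cells exposed to compound for 60 hours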
[10] = biological target: T2, Polyadenylate-binding protein 1 (Homo sapiens, UniProt P11940); assay: PABP1 MLLE–PAM2 binding inhibitor potency, dose response, biochemical, fluorescence polarization, FITC-PAM2 peptide (AID 602259); type: functional; details: read-out: IC50_Mean
[11] = biological target: T2, Polyadenylate-binding protein 1; assay: PABP1 MLLE–PAM2 interaction inhibitors, dose response, miRNA deadenylation inhibitor project, biochemical, fluorescence polarization, Cy5-PAM2 peptide, secondary (AID 602260); type: functional; details: read-out: IC50_Mean
[12] = biological target: T3, Zinc finger protein mex-5 (Caenorhabditis elegans, UniProt Q9XUB2); assay: MEX-5/TCR-2 RNA interaction inhibitors, dose response, biochemical, C. elegans, fluorescence polarization (AID 1960)
T3 sequence (Q9XUB2 whole entry): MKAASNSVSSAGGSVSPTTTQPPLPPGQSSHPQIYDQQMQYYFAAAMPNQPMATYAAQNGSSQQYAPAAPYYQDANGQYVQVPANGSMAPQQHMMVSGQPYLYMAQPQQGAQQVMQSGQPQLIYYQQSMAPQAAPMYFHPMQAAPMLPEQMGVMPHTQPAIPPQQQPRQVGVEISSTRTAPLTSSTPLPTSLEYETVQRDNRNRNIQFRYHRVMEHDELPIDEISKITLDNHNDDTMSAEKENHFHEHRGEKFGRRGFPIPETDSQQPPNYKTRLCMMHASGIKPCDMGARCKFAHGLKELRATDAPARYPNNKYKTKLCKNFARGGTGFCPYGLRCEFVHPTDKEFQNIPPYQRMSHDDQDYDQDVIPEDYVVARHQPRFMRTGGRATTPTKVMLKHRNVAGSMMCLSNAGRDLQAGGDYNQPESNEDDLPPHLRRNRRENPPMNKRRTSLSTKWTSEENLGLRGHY

[13] = biological target: T4, RNA-binding protein pos-1 (Caenorhabditis elegans, UniProt G5EF15); assay: inhibitors of POS-1/mex-3 RNA binding, dose response, biochemical, fluorescence polarization (AID 1964);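 note: purified POS-1 fused to maltose binding protein made in E. coli; potency of compounds blocking POS-1 binding to fluorescent RNA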
T4 sequence (G5EF15 whole entry): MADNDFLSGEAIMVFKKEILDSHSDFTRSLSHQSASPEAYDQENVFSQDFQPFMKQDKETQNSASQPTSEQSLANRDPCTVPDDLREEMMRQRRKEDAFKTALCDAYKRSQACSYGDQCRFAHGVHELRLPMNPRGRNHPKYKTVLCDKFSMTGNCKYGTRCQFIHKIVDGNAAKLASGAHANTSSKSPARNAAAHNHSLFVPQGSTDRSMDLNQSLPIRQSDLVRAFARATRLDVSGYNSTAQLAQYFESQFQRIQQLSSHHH

[14] = biological target: T5, Protein skinhead-1 (Caenorhabditis elegans, UniProt P34707); type: functional
T5 sequence (P34707 whole entry): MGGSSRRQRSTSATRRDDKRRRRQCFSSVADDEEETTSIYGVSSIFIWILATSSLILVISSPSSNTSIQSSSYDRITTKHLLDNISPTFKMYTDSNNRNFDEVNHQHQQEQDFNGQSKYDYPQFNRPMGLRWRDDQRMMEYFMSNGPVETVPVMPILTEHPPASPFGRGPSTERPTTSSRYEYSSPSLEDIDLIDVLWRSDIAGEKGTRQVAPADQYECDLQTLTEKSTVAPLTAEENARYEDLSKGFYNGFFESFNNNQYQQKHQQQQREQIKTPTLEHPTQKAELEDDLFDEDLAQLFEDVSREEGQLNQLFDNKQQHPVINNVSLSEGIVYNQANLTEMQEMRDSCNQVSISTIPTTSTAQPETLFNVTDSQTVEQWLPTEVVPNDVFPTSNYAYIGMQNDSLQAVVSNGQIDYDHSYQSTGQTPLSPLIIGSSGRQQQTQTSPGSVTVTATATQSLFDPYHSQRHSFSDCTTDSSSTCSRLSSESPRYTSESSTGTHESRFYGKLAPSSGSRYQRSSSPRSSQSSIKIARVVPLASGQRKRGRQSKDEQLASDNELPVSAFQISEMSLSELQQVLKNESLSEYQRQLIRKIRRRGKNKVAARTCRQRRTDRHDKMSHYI

[15] = biological target: T6, Rac GTPase-activating protein 1 (Homo sapiens, UniProt Q9H0H5); assay: MgcRacGAP GTPase-activating activity inhibitors, confirmation, biochemical, ADP Hunter fluorescence, primary and confirmatory (AID 624330); type: functional
T6 sequence (Q9H0H5 whole entry): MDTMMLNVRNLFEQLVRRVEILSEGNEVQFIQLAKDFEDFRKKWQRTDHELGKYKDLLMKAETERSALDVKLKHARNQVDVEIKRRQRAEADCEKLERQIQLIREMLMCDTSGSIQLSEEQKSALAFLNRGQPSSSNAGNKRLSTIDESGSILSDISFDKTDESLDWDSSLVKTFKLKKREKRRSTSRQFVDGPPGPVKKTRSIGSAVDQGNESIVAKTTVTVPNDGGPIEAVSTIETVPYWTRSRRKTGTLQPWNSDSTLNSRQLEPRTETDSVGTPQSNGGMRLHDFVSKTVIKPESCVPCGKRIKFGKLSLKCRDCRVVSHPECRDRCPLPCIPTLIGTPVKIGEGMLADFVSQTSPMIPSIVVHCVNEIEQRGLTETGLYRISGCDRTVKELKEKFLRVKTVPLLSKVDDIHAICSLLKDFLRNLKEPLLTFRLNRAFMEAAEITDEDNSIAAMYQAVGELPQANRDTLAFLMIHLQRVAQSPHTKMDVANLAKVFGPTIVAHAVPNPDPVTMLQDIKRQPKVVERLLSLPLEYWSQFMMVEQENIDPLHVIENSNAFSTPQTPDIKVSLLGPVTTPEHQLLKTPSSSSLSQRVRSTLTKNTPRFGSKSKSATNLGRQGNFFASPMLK

Chain of FAD-linked sulfhydryl oxidase ALR (P55789 whole entry): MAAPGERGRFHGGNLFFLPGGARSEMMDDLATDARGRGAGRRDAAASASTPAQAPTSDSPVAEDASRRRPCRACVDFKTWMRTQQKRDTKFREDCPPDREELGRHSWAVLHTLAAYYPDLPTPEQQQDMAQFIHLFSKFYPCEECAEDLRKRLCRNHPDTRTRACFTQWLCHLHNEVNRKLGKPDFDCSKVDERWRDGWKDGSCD
T2 sequence (P11940 whole entry): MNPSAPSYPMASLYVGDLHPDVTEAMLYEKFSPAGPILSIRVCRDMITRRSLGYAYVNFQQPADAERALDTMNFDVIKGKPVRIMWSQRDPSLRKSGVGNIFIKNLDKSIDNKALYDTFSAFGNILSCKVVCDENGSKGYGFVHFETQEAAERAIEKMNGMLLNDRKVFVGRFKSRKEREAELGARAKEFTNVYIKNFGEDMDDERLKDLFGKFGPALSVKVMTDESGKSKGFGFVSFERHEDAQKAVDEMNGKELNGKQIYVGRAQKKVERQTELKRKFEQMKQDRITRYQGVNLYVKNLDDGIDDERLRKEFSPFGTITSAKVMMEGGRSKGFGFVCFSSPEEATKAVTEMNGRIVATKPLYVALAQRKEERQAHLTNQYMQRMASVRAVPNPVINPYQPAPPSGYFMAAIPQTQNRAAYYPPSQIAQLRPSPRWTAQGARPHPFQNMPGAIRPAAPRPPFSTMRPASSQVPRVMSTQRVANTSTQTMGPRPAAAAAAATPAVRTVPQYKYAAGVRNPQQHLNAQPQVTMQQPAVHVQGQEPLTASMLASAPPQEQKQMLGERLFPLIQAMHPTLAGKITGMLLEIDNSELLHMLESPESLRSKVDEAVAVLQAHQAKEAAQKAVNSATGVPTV
Chain of Cytochrome P450 2C9 (P11712 whole entry): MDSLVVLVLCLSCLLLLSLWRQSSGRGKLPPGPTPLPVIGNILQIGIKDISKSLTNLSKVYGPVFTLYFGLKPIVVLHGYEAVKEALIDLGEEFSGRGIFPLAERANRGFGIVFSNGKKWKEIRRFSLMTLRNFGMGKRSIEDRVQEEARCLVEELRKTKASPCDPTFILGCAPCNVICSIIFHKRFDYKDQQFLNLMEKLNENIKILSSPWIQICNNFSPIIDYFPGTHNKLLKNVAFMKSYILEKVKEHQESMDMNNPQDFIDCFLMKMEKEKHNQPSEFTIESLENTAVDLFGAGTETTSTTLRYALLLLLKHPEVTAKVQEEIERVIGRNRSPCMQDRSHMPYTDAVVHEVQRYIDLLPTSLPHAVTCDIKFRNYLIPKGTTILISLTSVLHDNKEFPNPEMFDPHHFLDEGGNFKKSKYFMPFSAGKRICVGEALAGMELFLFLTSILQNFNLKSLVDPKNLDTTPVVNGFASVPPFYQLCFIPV
Chain of Cytochrome P450 3A4 (P08684 whole entry): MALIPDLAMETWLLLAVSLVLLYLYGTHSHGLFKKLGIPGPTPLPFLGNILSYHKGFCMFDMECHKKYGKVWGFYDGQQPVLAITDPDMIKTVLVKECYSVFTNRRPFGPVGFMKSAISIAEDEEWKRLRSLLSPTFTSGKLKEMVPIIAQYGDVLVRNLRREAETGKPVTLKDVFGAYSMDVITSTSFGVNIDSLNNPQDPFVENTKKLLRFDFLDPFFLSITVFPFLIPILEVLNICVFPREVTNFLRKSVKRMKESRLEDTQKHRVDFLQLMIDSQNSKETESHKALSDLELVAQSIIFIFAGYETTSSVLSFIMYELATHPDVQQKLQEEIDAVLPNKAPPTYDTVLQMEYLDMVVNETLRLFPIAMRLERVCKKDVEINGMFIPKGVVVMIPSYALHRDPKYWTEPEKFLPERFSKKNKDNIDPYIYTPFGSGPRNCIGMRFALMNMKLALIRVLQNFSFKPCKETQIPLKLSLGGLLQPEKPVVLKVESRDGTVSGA

Question: With `CCOC(=O)c1cnn(-c2ccccc2)c1-n1cccc1C(=O)C(=O)Nc1ccccc1C(F)(F)F` as the compound, how does the AC50 [1] read?
Answer: 5.62 µM (inconclusive)

Question: And the AC50 [2]?
Answer: 14.1 µM (inconclusive)

Question: And the AC50 [3]?
Answer: 4.47 µM (inconclusive)

Question: And the CC50 [4]?
Answer: 24.1 µM (active)

Question: Which IC50 [5] does the source give for `CCOC(=O)c1cc(-c2cccc([N+](=O)[O-])c2)on1` here?
Answer: 10.3 µM (active)

Question: With `CCN(CC)Cc1c(-c2ccccc2)nc2ccc(C)cc2c1O` as the compound, how does the AC50 [6] read?
Answer: 1.77 µM (active)

Question: Which CC50 [7] does the source give for `CCCCn1c(SCc2ncc(-c3ccccc3)o2)nc2cc(S(N)(=O)=O)ccc21` here?
Answer: > 40 µM (active)

Question: And the EC50 [8]?
Answer: 26 µM (active)

Question: And the EC50 [9]?
Answer: 27.4 µM (active)

Question: Which IC50 [5] does the source give for `COc1ccc(C(=O)COC(=O)COc2ccc(C)c(C)c2)cc1` here?
Answer: > 50 µM (active)

Question: For `COc1ccccc1N1CCN(C(=O)CCNS(=O)(=O)c2cc(Br)cnc2N)CC1`, which AC50 [6] is on record?
Answer: 11.8 µM (active)

Question: For `O=C1CCC(/C=C/c2ccccc2)=NN1Cc1ccc(Cl)c(Cl)c1`, which CC50 [4] is on record?
Answer: 24.4 µM (active)

Question: Which IC50 [10] does the source give for `COc1ccc(NC(=O)C2Cc3ccccc3CN2C(=O)c2ccccc2)cn1` (stereo not drawn) here?
Answer: 13.1 µM (active)

Question: What about the IC50 [11] of the same compound?
Answer: > 66 µM (inactive)

Question: And the EC50 [12]?
Answer: > 300 µM (inconclusive)

Question: What about the EC50 [13] of the same compound?
Answer: 25.1 µM (active)

Question: Which IC50 [5] does the source give for `CC(C)Cc1nnc(NC(=O)CCS(=O)(=O)c2ccc(Cl)cc2)s1` here?
Answer: 36 µM (active)

Question: Which AC50 [6] does the source give for `COc1ccccc1Nc1nc(C2(C)CCC(=O)O2)cs1` (stereo not drawn) here?
Answer: 4.38 µM (active)

Question: With `C(=C\c1nc(-c2ccncc2)no1)/c1ccccc1` as the compound, how does the IC50 [14] read?
Answer: 12.4 µM (active)

Question: Which AC50 [6] does the source give for `COc1cccc(CNC(=O)CCNC(=O)N2CCn3c2nc2ccccc23)c1` here?
Answer: 1.09 µM (active)

Question: Which AC50 [6] does the source give for `COc1cccc(/C=N/N2C(=O)NC3(CCCCC3)C2=O)c1O` here?
Answer: 9.34 µM (active)

Question: For `CCOc1cc(/C=N/NC(N)=O)cc(Br)c1OCc1ccccc1`, which CC50 [4] is on record?
Answer: 19.4 µM (active)

Question: With `Oc1ccccc1/N=C/c1ccc[nH]1` as the compound, how does the CC50 [7] read?
Answer: > 40 µM (active)

Question: With `COc1cc(/C(C)=N/N2CCN(Cc3ccc(C)cc3)CC2)ccc1O` as the compound, how does the IC50 [15] read?
Answer: 271 µM (active)

Question: What about the AC50 [6] of the same compound?
Answer: 7.66 µM (active)

Question: With `C/N=c1\scc(-c2ccccc2Br)n1/N=C/c1ccc[nH]1` as the compound, how does the CC50 [7] read?
Answer: > 40 µM (active)

Question: Which IC50 [14] does the source give for `Cn1/c(=N/C(=O)C2CC2)sc2cc(F)cc(F)c21` here?
Answer: > 100 µM (inactive)

Question: For `NNCCc1ccccc1` [PHENELZINE SULFATE], which AC50 [6] is on record?
Answer: 7.5 µM (active)
